# Assay results as given in patent publication US20160279095A1, “USE OF NUTRITIONAL COMPOSITIONS INCLUDING NATURAL VITAMIN E, AND POLYUNSATURATED FATTY ACID” (ABBOTT LABORATORIES, priority 2013, published 2016).
# Tested on: Primary cortical neurons
# Assay: DHA peroxidation in primary cortical neurons, MDA levels measured by LC-MS
# Format: cell-based, Sprague-Dawley rat
# Conditions: for MDA concentration (DHA peroxidation): by LCMS/MS
# Description: Primary cortical neurons from postnatal day 3-5 (P3-P5) Sprague-Dawley rat pup's brain were pretreated with/without natural vitamin E in the form of RRR-a-tocopherol (15 μM or 45 μM), and/or lutein (0.32 nM or 0.5 nM) individually and in combination for 12 hours. (Note that μM is used to refer to a micromolar concentration and nM is used to refer to a nanomolar concentration and concentrations refer to those reached in the test tubes containing the cortical neurons.) After 12 hours DHA (90 μM) was added for an additional 12 hours. After 12 hours samples were washed in PS and neurons were lysed. Peroxides generated from DHA and incorporated into the neuronal cell membrane were assessed by measuring the MDA levels using liquid chromatography-mass spectometry (LC-MS) method.
structure (smiles),measurement,setting,value
"Cc1c(C)c2c(c(C)c1O)CC[C@@](C)(CCC[C@H](C)CCC[C@H](C)CCCC(C)C)O2 [RRR alpha tocopherol, RRR-alpha tocopherol]",MDA concentration (DHA peroxidation),"15 μM RRR alpha tocopherol pretreatment 12 hours, then DHA 90 μM 12 hours",about 75%
same,MDA concentration (DHA peroxidation),"45 μM RRR alpha tocopherol pretreatment 12 hours, then DHA 90 μM 12 hours, p<0.001",about 57%
"CC/C=C\C/C=C\C/C=C\C/C=C\C/C=C\C/C=C\CCC(=O)O [DHA, docosahexaenoic acid]",MDA concentration (DHA peroxidation),"DHA 90 μM for 12 hours, without either RRR alpha tocopherol or lutein",about 110
CC1=C[C@H](O)CC(C)(C)[C@H]1/C=C/C(C)=C/C=C/C(C)=C/C=C/C=C(C)/C=C/C=C(C)/C=C/C1=C(C)C[C@@H](O)CC1(C)C [lutein],effect on retarding DHA peroxidation,"lutein alone, without RRR alpha tocopherol, then DHA 90 μM",essentially no effect
